Columns and labels:
[1] = test system: U87 cells; assay: MTT cell viability of U87 cells cultured 72 hours in test media; type: cell-based, Human
Experimental: (§1) As a preliminary step, cancer cells are cultured overnight. For example, the cancer cells may be cultured in an incubator under the standard conditions (a 37° C., 5% (v/v) CO2 and humidified environment) for […]. MTT (3-(4,5-dimethylthiazol-2-yl)-2,5-diphenyltetrazolium bromide), a colorimetric assay (Sigma-Aldrich) was harnessed to qualify the cell viability. The initial media which had been used to culture cancer cells overnight may be discarded prior to treatment with CAPs media. […]
(§2) For each cell line, the protocol was identical. […] Ultimately, according to the standard method, the viability of U87 cells were qualified by MTT test and were read by a H1 microplate reader (Hybrid Technology) at the absorbance of 570 nm.
(§3) The protocols for three cell lines were identical. […] Ultimately, the cell viability was measured.
(§4) The protocol for three cell lines was identical. […] Second, we respectively prepared 2.4 mM specific amino acids rich DMEM by dissolving specific quantities of amino acids powers (Sigma-Aldrich) in DMEM (1% ABS). […]

[2] = test system: MCF-7 cells; assay: MTT cell viability of MCF-7 cells cultured 72 hours in test media; type: cell-based, Human
Experimental: as §1, §2, §3, §4

[3] = H2O2 in complete media, nominal 1-100 μM, 72 hours

Compound	resistance to H2O2 rich media [1, 3]	resistance to H2O2 rich media [2, 3]	growth of cancer cells in untreated amino acid rich DMEM (control group, toxicity) ([1]; 2.4 mM, no CAP treatment)	growth of cancer cells in untreated amino acid rich DMEM (control group, toxicity) ([2]; 2.4 mM, no CAP treatment)
OO [H2O2, hydrogen peroxide]	stronger resistance to H2O2 than MDA-MB-231 cells	stronger resistance to H2O2 than MDA-MB-231 cells	–	–
N[C@@H](Cc1c[nH]c2ccccc12)C(=O)O [tryptophan]	–	–	strong resistance to growth of cancer cells	strong resistance to growth of cancer cells

From patent US10479979B2, “Method for making and using cold atmospheric plasma stimulated media for cancer treatment” (U.S. Patent Innovations, LLC, priority 2015, dated 2019)
